Source: ChEMBL document CHEMBL5096164, “In Vivo Profiling of a Natural Alkaloid, Anatabine, in Rodents: Pharmacokinetics and Anti-Inflammatory Efficacy” (J Nat Prod, 2021)

How the values were obtained:
Mus musculus [1] = assay: Antiinflammatory activity in LPS induced mouse model assessed as reduction in tumor necrosis factor alpha level in plasma at 1 mg/kg, po preincubated for 1 hr followed by LPS stimulation and measured after 2 hrs by ELISA method relative to control; format: functional; parameters: scale not given: the % may be the effect or the level left; settings: time 3 hrs
Mus musculus [2] = assay: Antiinflammatory activity in LPS induced mouse model assessed as reduction in IL-6 level in plasma at 1 mg/kg, po preincubated for 1 hr followed by LPS stimulation and measured after 2 hrs by ELISA method relative to control; format: functional; parameters: scale not given: the % may be the effect or the level left; settings: time 3 hrs
in vivo = settings: rat, plasma
[3] = Half life in mouse plasma

Compound	Activity (Mus musculus [1]) [%]	Activity (Mus musculus [2]) [%]	half-life (in vivo) [min]	half-life [3] [min]
C[C@@H]1C[C@H]2[C@@H]3CCC4=CC(=O)C=C[C@]4(C)[C@@]3(F)[C@@H](O)C[C@]2(C)[C@@]1(O)C(=O)CO [DEXAMETHASONE]	72.1	46.9		
CN1CCC[C@H]1c1cccnc1 [NICOTINE]			54	6
